Experiments:
[1] = target: T1, recombinant catalytic a domain of human PDI A1 (PDIa) (Homo sapiens, UniProt P07237); assay: Insulin aggregation assay (PDIa reductase activity); format: biochemical
T1 construct: made in house; host or cells: Escherichia coli BL21-Gold (DE3)

[2] = Mouse plasma stability assay; format: in vitro ADME; conditions: compound 1.0 μM
Description: Test compound (1 μM) was incubated at 37° C. for up to 120 minutes in mouse plasma. At 0, 15, 30, 60, and 120 minute intervals an 100 μL aliquot was taken and quenched with 200 μL acetonitrile (ACN) containing internal standard. Following completion of the experimentation, the samples were analyzed by LC-MS/MS. The half-life (t1/2) was calculated using the following equation: t1/2=0.693/k, where, k is the elimination rate constant of test compounds obtained by fitting the data to the equation: C=initial×exp (−k×t). Results were reported as peak area ratios of analyte to internal standard.
The microsome stability assay, plasma stability assay, and plasma protein binding assay were each performed by Alliance Pharma, Inc. (Malvern, Pa.).

[3] = system: cortical neurons; assay: Tau4R-induced neurodegeneration brain slice assay; format: cell-based; conditions: rat corticostriatal brain slice, tau4R transfection, 4 days
Description: Rat corticostriatal brain slice explants co-transfected with YFP and the tau isoform with 4 tubulin-binding repeats (Tau4R) were treated with LOC14, an analog of LOC14 “BIT fragment” (1,2,Benzisothiazol-3-one), or DMSO only for 4 days. Data are plotted as mean±SEM from one of five representative experiments. *Significant by ANOVA followed by Dunnett's post hoc comparison test at p<0.05.
Next, whether LOC14 could be neuroprotective in additional models of neurodegenerative diseases was explored. […] In this rat corticostriatal brain slice assay, cortical neuron degeneration is induced by biolistic transfection with tau, in this case a tau isoform with 4 tubulin-binding repeats (“tau4R”) which is implicated in frontotemporal dementias and more broadly in Alzheimer's disease.

[4] = Single-dose pharmacokinetic study (BBB penetration); format: in vivo; conditions: single-dose 20 mg/kg, intravenously or orally, mice
Description: LOC14 administered via (FIG. 17A) intravenous or (FIG. 17B) oral route to wild-type C57BL/6j mice at 20 mg/kg. The concentration of compound in the brain tissue and plasma is shown for each individual mouse (represented by dots). The horizontal lines represent the mean±SD (n=3).
Showing promising in vitro metabolic properties, LOC14 was tested in a single-dose pharmacokinetic (PK) study. This was a pilot study to evaluate the ability of LOC14 to traverse the blood-brain barrier (BBB). In this study, LOC14 was administered via two routes, intravenously (FIG. 17A) or orally (FIG. 17B), at a single-dose of 20 mg/kg to wild-type C57BL/6j mice.

T1 sequence (P07237 with tags, fused parts or gaps): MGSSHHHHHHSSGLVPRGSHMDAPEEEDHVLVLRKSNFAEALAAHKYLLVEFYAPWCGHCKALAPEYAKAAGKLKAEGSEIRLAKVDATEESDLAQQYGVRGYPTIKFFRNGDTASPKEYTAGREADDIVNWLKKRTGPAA

## O=C(C1CC1)N1CCN(Cn2sc3ccccc3c2=O)CC1 [LOC14, 2-((4-(cyclopropanecarbonyl)piperazin-1-yl)methyl)benzo[d]isothiazol-3(2H)-one]
[1]; Table 5
  Insulin Assay (either active or inactive): Active
[1]; compound 750 μM + PDIa 500 μM, diluted 100-fold
  PDI's enzymatic activity after dilution of pre-formed complex: complete recovery
[2]
  % Remaining after 2-hour incubation: 49.9%
  Elimination rate constant (k): 0.0049
[2]; read-out: Half-life (t1/2) (converted)
  half-life at 1 μM: 2.4 h
[3]
  neuroprotection in tau-mediated neurodegeneration assay: strongly and reproducibly neuroprotective
[4]
  blood-brain barrier penetration: penetrated the BBB
  tolerability: well tolerated

Source: patent publication US20180092908A1, “SMALL MOLECULE OXIDIZERS OF PDI AND THEIR USE” (THE TRUSTEES OF COLUMBIA UNIVERSITY IN THE CITY OF NEW YORK, priority 2015, published 2018)
